This is an account of results in BindingDB's records for doi:10.1016/j.bmcl.2009.04.040 (The University of Texas Southwestern Medical Center At …, 2009).

This assay has as its target Proto-oncogene Wnt-3 (Homo sapiens, UniProt P56703). Put plainly: Inhibition of Wnt3 expressed in mouse L-cells assessed as inhibition of Wnt/catanin signaling pathway by luciferase reporter gene assay. (In general: In a reporter assay the amount or activity of a reporter protein is the signal.)

A value given as a limit tells only on which side of the number the result lay.

Sequence of Proto-oncogene Wnt-3 (P56703 whole entry): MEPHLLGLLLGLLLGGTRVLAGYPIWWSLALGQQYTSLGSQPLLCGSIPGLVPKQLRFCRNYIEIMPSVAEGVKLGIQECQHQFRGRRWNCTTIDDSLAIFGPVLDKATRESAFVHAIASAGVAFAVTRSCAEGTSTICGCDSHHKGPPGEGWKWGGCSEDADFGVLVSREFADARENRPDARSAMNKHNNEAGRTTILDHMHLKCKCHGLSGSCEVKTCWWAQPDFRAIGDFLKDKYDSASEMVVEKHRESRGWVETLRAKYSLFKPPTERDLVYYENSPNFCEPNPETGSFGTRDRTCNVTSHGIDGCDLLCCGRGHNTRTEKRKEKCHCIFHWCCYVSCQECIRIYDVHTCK

Usually EC50 stands for the concentration that produces a half-maximal response. With `O=C(Nc1ccc(-n2c(O)c3c(c2O)[C@H]2C=C[C@@H]3C2)cc1)Nc1cccc2cccnc12` [1-[4-((1R,2S,6R,7S)-3,5-Dioxo-4-aza-tricyclo[5.2.1.0*2,6*]dec-8-en-4-yl)-phenyl]-3-quinolin-8-yl-urea], the EC50 was more than 25 µM.
Turning to `O=C(Nc1cccc2cccnc12)c1ccc(-n2c(O)c3c(c2O)[C@H]2C=C[C@@H]3C2)cc1Cl` [2-Chloro-4-((1R,2S,6R,7S)-3,5-dioxo-4-aza-tricyclo[5.2.1.0*2,6*]dec-8-en-4-yl)-N-quinolin-8-yl-benzamide], the EC50 came out at 1 µM.
Turning to `O=C(Nc1cccc2cccnc12)c1ccc(-n2c(O)c3c(c2O)[C@H]2C=C[C@@H]3C2)c(Cl)c1` [3-Chloro-4-((1R,2S,6R,7S)-3,5-dioxo-4-aza-tricyclo[5.2.1.0*2,6*]dec-8-en-4-yl)-N-quinolin-8-yl-benzamide], the EC50 was more than 25 µM.
Turning to `O=C(Nc1ccccc1)c1ccc(-n2c(O)c3c(c2O)[C@H]2C=C[C@H]3C2)cc1` [4-((1R,2S,6R,7R)-3,5-Dioxo-4-aza-tricyclo[5.2.1.0*2,6*]dec-8-en-4-yl)-N-phenyl-benzamide], the EC50 is more than 25 µM.
As to `COc1cc(-n2c(O)c3c(c2O)[C@H]2C=C[C@@H]3C2)ccc1C(=O)Nc1cccc2cccnc12` [4-((1R,2S,6R,7S)-3,5-Dioxo-4-aza-tricyclo[5.2.1.0*2,6*]dec-8-en-4-yl)-2-methoxy-N-quinolin-8-yl-benzamide], the EC50 is more than 25 µM.
Consider `Cc1cc(-n2c(O)c3c(c2O)[C@H]2C=C[C@@H]3C2)ccc1C(=O)Nc1cccc2cccnc12` [4-((1R,2S,6R,7S)-3,5-Dioxo-4-aza-tricyclo[5.2.1.0*2,6*]dec-8-en-4-yl)-2-methyl-N-quinolin-8-yl-benzamide], for which the EC50 was 2 µM.
The result for `COc1cc(C(=O)Nc2cccc3cccnc23)ccc1-n1c(O)c2c(c1O)[C@H]1C=C[C@@H]2C1` [4-((1R,2S,6R,7S)-3,5-Dioxo-4-aza-tricyclo[5.2.1.0*2,6*]dec-8-en-4-yl)-3-methoxy-N-quinolin-8-yl-benzamide] reads more than 25 µM; that for `Cc1cc(C(=O)Nc2cccc3cccnc23)ccc1-n1c(O)c2c(c1O)[C@H]1C=C[C@@H]2C1` [4-((1R,2S,6R,7S)-3,5-Dioxo-4-aza-tricyclo[5.2.1.0*2,6*]dec-8-en-4-yl)-3-methyl-N-quinolin-8-yl-benzamide], more than 25 µM.
Consider `O=C(Nc1cccc(C(F)(F)F)c1)c1ccc(-n2c(O)c3c(c2O)[C@H]2C=C[C@@H]3C2)cc1` [4-((1R,2S,6R,7S)-3,5-Dioxo-4-aza-tricyclo[5.2.1.0*2,6*]dec-8-en-4-yl)--(3-trifluoromethyl-phenyl)-benzamide], for which the EC50 worked out at 20 µM.
Consider `O=C(Nc1ccccc1F)c1ccc(-n2c(O)c3c(c2O)[C@H]2C=C[C@@H]3C2)cc1` [4-((1R,2S,6R,7S)-3,5-Dioxo-4-aza-tricyclo[5.2.1.0*2,6*]dec-8-en-4-yl)-N-(2-fluoro-phenyl)-benzamide], for which the EC50 is more than 25 µM.
Turning to `COc1ccccc1NC(=O)c1ccc(-n2c(O)c3c(c2O)[C@H]2C=C[C@@H]3C2)cc1` [4-((1R,2S,6R,7S)-3,5-Dioxo-4-aza-tricyclo[5.2.1.0*2,6*]dec-8-en-4-yl)-N-(2-methoxy-phenyl)-benzamide], the EC50 came out at 1 µM.
For `O=C(Nc1ccccc1C(F)(F)F)c1ccc(-n2c(O)c3c(c2O)[C@H]2C=C[C@@H]3C2)cc1` [4-((1R,2S,6R,7S)-3,5-Dioxo-4-aza-tricyclo[5.2.1.0*2,6*]dec-8-en-4-yl)-N-(2-trifluoromethyl-phenyl)-benzamide], the EC50 is more than 25 µM.
`O=C(Nc1cccc(F)c1)c1ccc(-n2c(O)c3c(c2O)[C@H]2C=C[C@@H]3C2)cc1` [4-((1R,2S,6R,7S)-3,5-Dioxo-4-aza-tricyclo[5.2.1.0*2,6*]dec-8-en-4-yl)-N-(3-fluoro-phenyl)-benzamide]: the EC50 is more than 25 µM.
Consider `O=C(Nc1ccc(F)cc1)c1ccc(-n2c(O)c3c(c2O)[C@H]2C=C[C@@H]3C2)cc1` [4-((1R,2S,6R,7S)-3,5-Dioxo-4-aza-tricyclo[5.2.1.0*2,6*]dec-8-en-4-yl)-N-(4-fluoro-phenyl)-benzamide], for which the EC50 was determined as 4 µM.
Consider `O=C(Nc1ccc(C(F)(F)F)cc1)c1ccc(-n2c(O)c3c(c2O)[C@H]2C=C[C@@H]3C2)cc1` [4-((1R,2S,6R,7S)-3,5-Dioxo-4-aza-tricyclo[5.2.1.0*2,6*]dec-8-en-4-yl)-N-(4-trifluoromethyl-phenyl)-benzamide], for which the EC50 is more than 25 µM.
In the case of `O=C(NC1CCCc2cccnc21)c1ccc(-n2c(O)c3c(c2O)[C@H]2C=C[C@@H]3C2)cc1` (stereo partly drawn) [4-((1R,2S,6R,7S)-3,5-Dioxo-4-aza-tricyclo[5.2.1.0*2,6*]dec-8-en-4-yl)-N-(5,6,7,8-tetrahydro-quinolin-8-yl)-benzamide], the EC50 stood at 10 µM.
In the case of `Cc1ccc2cccnc2c1NC(=O)c1ccc(-n2c(O)c3c(c2O)[C@H]2C=C[C@@H]3C2)cc1` [4-((1R,2S,6R,7S)-3,5-Dioxo-4-aza-tricyclo[5.2.1.0*2,6*]dec-8-en-4-yl)-N-(7-methyl-quinolin-8-yl)-benzamide], the EC50 was found to be 0.8 µM.
On to `CN(C(=O)c1ccc(-n2c(O)c3c(c2O)[C@H]2C=C[C@@H]3C2)cc1)c1cccc2cccnc12` [4-((1R,2S,6R,7S)-3,5-Dioxo-4-aza-tricyclo[5.2.1.0*2,6*]dec-8-en-4-yl)-N-methyl-N-quinolin-8-yl-benzamide], for which the EC50 is more than 25 µM.
The result for `O=C(NCc1ccccn1)c1ccc(-n2c(O)c3c(c2O)[C@H]2C=C[C@@H]3C2)cc1` [4-((1R,2S,6R,7S)-3,5-Dioxo-4-aza-tricyclo[5.2.1.0*2,6*]dec-8-en-4-yl)-N-pyridin-2-ylmethyl-benzamide] reads more than 25 µM; that for `O=C(NCc1cccnc1)c1ccc(-n2c(O)c3c(c2O)[C@H]2C=C[C@@H]3C2)cc1` [4-((1R,2S,6R,7S)-3,5-Dioxo-4-aza-tricyclo[5.2.1.0*2,6*]dec-8-en-4-yl)-N-pyridin-3-ylmethyl-benzamide], more than 25 µM.
As for `O=C(NCc1ccncc1)c1ccc(-n2c(O)c3c(c2O)[C@H]2C=C[C@@H]3C2)cc1` [4-((1R,2S,6R,7S)-3,5-Dioxo-4-aza-tricyclo[5.2.1.0*2,6*]dec-8-en-4-yl)-N-pyridin-4-ylmethyl-benzamide], the figure is 10 µM; as for `O=C1[C@@H]2[C@H](C(=O)N1[C@H]1CC[C@H](C(=O)Nc3cccc4cccnc34)CC1)[C@@H]1C=C[C@H]2C1` [4-((1R,2S,6R,7S)-3,5-Dioxo-4-aza-tricyclo[5.2.1.0*2,6*]dec-8-en-4-yl)-cyclohexanecarboxylic acid quinolin-8-ylamide], 0.4 µM; as for `Cc1ccnc2c(NC(=O)[C@H]3CC[C@H](N4C(=O)[C@@H]5[C@H](C4=O)[C@@H]4C=C[C@H]5C4)CC3)cccc12` [4-((1R,2S,6R,7S)-3,5-Dioxo-4-aza-tricyclo[5.2.1.0*2,6*]dec-8-en-4-yl)-cyclohexanecarboxylic acid(4-methyl-quinolin-8-yl)-amide], 1 µM.
With `Cc1ccc2cccnc2c1NC(=O)[C@H]1CC[C@H](N2C(=O)[C@@H]3[C@H](C2=O)[C@@H]2C=C[C@H]3C2)CC1` [4-((1R,2S,6R,7S)-3,5-Dioxo-4-aza-tricyclo[5.2.1.0*2,6*]dec-8-en-4-yl)-cyclohexanecarboxylic acid(7-methyl-quinolin-8-yl)-amide], the EC50 is 1 µM.
Take `O=C(Nc1cccc2cccnc12)N1CCC(N2C(=O)[C@@H]3[C@H](C2=O)[C@@H]2C=C[C@H]3C2)CC1` [4-((1R,2S,6R,7S)-3,5-Dioxo-4-aza-tricyclo[5.2.1.0*2,6*]dec-8-en-4-yl)-piperidine-1-carboxylic acid quinolin-8-ylamide]: the EC50 is 10 µM.
In the case of `O=C1[C@@H]2[C@H](C(=O)N1C[C@H]1CC[C@H](C(=O)Nc3cccc4cccnc34)CC1)[C@@H]1C=C[C@H]2C1` [4-((1R,2S,6R,7S)-3,5-Dioxo-4-aza-tricyclo[5.2.1.0*2,6*]dec-8-en-4-ylmethyl)-cyclohexanecarboxylic acid quinolin-8-ylamide], the EC50 was more than 25 µM.
Consider `Cc1ccnc2c(NC(=O)[C@H]3CC[C@H](CN4C(=O)[C@@H]5[C@H](C4=O)[C@@H]4C=C[C@H]5C4)CC3)cccc12` [4-((1R,2S,6R,7S)-3,5-Dioxo-4-aza-tricyclo[5.2.1.0*2,6*]dec-8-en-4-ylmethyl)-cyclohexanecarboxylic acid(4-methyl-quinolin-8-yl)-amide], for which the EC50 was more than 25 µM.
For the molecule `Cc1ccc2cccnc2c1NC(=O)[C@H]1CC[C@H](CN2C(=O)[C@@H]3[C@H](C2=O)[C@@H]2C=C[C@H]3C2)CC1` [4-((1R,2S,6R,7S)-3,5-Dioxo-4-aza-tricyclo[5.2.1.0*2,6*]dec-8-en-4-ylmethyl)-cyclohexanecarboxylic acid(7-methyl-quinolin-8-yl)-amide], the concentration for a half-maximal effect (EC50) was found to be 10 µM.
With `O=C(Nc1cccc(F)c1F)c1ccc(-n2c(O)c3c(c2O)[C@H]2C=C[C@@H]3C2)cc1` [N-(2,3-Difluoro-phenyl)-4-((1R,2S,6R,7S)-dioxo-4-aza-tricyclo[5.2.1.0*2,6*]dec-8-en-4-yl)-benzamide], the EC50 is more than 25 µM.
For `O=C(Nc1ccc(Br)cc1Br)c1ccc(-n2c(O)c3c(c2O)[C@H]2C=C[C@@H]3C2)cc1` [N-(2,4-Dibromo-phenyl)-4-((1R,2S,6R,7S)-dioxo-4-aza-tricyclo[5.2.1.0*2,6*]dec-8-en-4-yl)-benzamide], the EC50 was more than 25 µM.
For `O=C(Nc1ccc(Cl)cc1Cl)c1ccc(-n2c(O)c3c(c2O)[C@H]2C=C[C@@H]3C2)cc1` [N-(2,4-Dichloro-phenyl)-4-((1R,2S,6R,7S)-dioxo-4-aza-tricyclo[5.2.1.0*2,6*]dec-8-en-4-yl)-benzamide], the EC50 came out at 10 µM.
As for `O=C(Nc1ccc(F)cc1F)c1ccc(-n2c(O)c3c(c2O)[C@H]2C=C[C@@H]3C2)cc1` [N-(2,4-Difluoro-phenyl)-4-((1R,2S,6R,7S)-dioxo-4-aza-tricyclo[5.2.1.0*2,6*]dec-8-en-4-yl)-benzamide], the figure is 9 µM.
With `O=C(Nc1cc(F)ccc1F)c1ccc(-n2c(O)c3c(c2O)[C@H]2C=C[C@@H]3C2)cc1` [N-(2,5-Difluoro-phenyl)-4-((1R,2S,6R,7S)-dioxo-4-aza-tricyclo[5.2.1.0*2,6*]dec-8-en-4-yl)-benzamide], the EC50 is more than 25 µM.
Consider `O=C(Nc1c(F)cccc1F)c1ccc(-n2c(O)c3c(c2O)[C@H]2C=C[C@@H]3C2)cc1` [N-(2,6-Difluoro-phenyl)-4-((1R,2S,6R,7S)-dioxo-4-aza-tricyclo[5.2.1.0*2,6*]dec-8-en-4-yl)-benzamide], for which the EC50 is more than 25 µM.
